From ChEMBL document CHEMBL3396973, “Synthesis and biological evaluation of new pyrazol-4-ylpyrimidine derivatives as potential ROS1 kinase inhibitors” (Eur J Med Chem, 2015) come the findings set out here.

Assay [1] addresses T1, Proto-oncogene tyrosine-protein kinase ROS (Homo sapiens, UniProt P08922).
In assay [2] the target is ALK tyrosine kinase receptor (Homo sapiens, UniProt Q9UM73).
Assay [3] concerns the target T2, Hepatocyte growth factor receptor (Homo sapiens, UniProt P08581).
In assay [4] the target is T2, Hepatocyte growth factor receptor. The source holds these as a separate data set.
Assay [5] deals with T1, Proto-oncogene tyrosine-protein kinase ROS. The source holds these as a separate data set.
For assay [6] the target is unchanged. The source holds these as a separate data set.
For assay [7] the target is unchanged. As to the kind of experiment: Inhibition of ROS1 (unknown origin) by HotSpot assay.

T2 sequence (P08581 whole entry): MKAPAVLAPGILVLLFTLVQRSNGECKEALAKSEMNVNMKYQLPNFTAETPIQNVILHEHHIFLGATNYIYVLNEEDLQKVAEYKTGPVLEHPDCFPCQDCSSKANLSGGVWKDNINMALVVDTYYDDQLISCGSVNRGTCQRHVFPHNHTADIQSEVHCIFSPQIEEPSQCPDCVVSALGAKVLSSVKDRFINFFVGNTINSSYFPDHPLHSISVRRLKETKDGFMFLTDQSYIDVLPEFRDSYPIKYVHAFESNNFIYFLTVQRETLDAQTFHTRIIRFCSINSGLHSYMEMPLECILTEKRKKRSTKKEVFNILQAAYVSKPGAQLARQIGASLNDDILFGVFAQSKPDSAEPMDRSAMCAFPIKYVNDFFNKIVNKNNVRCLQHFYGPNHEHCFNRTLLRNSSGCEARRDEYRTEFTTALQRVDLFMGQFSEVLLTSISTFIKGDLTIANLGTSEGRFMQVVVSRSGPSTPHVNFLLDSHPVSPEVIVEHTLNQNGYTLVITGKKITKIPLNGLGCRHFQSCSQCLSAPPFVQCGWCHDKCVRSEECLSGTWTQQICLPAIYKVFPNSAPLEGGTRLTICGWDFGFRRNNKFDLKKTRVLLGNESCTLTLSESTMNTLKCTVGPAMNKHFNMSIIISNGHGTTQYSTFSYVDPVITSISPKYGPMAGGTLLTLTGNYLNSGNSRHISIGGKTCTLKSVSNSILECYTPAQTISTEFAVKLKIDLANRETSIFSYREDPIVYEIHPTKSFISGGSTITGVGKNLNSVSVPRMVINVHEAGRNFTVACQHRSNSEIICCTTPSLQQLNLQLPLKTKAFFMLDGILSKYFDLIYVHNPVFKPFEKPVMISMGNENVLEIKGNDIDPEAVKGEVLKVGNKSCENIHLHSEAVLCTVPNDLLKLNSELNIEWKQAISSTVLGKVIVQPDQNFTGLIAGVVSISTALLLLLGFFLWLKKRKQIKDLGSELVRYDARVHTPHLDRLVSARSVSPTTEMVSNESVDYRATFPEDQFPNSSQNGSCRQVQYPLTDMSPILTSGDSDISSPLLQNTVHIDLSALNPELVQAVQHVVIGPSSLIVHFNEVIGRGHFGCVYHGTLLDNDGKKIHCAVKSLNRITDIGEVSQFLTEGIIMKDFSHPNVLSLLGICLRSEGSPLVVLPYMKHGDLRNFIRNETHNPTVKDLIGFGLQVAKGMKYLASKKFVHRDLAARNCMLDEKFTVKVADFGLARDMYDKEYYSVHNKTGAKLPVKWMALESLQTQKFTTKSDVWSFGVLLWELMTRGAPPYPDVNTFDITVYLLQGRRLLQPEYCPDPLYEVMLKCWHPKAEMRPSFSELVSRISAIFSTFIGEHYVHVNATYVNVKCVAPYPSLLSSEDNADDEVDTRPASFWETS
T1 sequence (P08922 whole entry): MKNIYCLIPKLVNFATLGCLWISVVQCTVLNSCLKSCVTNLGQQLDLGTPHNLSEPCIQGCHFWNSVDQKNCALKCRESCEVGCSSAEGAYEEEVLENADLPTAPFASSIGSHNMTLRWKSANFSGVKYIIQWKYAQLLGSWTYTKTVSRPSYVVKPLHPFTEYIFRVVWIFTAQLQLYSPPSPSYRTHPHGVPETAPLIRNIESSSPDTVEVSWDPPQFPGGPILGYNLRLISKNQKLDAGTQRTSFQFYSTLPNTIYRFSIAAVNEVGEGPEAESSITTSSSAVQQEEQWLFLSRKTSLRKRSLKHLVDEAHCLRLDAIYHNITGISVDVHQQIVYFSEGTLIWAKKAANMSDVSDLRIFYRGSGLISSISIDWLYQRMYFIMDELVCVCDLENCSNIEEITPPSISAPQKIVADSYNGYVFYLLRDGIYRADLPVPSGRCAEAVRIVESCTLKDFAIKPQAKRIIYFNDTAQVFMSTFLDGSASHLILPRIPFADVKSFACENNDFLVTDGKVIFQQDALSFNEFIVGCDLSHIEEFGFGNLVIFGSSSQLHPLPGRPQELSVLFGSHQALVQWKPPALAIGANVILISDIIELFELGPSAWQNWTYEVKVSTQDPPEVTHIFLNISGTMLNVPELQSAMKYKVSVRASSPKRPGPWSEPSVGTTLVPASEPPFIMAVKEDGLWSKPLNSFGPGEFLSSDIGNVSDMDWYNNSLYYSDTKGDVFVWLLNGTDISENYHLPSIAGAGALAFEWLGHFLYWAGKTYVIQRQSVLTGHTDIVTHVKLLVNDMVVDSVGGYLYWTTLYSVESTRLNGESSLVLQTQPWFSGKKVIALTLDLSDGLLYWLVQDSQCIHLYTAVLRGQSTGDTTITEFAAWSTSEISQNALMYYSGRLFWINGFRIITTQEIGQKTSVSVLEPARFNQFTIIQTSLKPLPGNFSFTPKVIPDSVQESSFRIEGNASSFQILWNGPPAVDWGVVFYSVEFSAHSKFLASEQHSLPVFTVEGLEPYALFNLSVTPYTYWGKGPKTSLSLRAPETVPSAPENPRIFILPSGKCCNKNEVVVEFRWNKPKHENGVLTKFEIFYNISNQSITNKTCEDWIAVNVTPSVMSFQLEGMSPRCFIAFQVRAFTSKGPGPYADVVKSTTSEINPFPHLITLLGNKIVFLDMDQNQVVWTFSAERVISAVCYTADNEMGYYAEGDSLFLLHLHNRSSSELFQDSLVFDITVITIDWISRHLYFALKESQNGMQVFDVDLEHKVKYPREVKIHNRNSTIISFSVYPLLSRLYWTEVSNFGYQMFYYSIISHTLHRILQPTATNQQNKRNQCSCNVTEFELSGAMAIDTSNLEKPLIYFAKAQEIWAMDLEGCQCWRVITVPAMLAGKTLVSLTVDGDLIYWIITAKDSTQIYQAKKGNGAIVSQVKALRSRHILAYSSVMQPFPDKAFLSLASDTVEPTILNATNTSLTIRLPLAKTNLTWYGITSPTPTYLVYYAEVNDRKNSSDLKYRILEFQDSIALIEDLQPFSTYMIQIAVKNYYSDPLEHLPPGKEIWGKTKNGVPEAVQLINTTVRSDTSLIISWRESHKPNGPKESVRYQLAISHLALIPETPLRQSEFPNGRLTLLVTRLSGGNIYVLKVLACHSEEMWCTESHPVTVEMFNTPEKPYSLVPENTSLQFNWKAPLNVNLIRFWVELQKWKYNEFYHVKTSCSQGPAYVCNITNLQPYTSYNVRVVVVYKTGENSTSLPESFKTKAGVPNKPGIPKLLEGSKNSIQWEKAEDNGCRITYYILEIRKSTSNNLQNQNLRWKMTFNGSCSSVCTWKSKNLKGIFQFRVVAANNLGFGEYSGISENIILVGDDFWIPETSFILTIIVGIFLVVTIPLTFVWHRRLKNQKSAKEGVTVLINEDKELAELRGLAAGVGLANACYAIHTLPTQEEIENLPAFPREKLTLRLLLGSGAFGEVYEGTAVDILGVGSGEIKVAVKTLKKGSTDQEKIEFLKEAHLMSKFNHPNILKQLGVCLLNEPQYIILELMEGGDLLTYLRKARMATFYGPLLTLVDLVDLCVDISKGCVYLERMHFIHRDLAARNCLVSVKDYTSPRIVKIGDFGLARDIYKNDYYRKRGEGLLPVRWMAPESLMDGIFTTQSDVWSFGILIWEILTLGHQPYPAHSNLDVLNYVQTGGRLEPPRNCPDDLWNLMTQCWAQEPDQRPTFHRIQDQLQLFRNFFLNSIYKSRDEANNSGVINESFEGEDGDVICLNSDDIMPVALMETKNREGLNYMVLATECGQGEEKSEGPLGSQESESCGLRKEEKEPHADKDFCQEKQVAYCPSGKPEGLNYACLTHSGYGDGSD

For `Cc1cc(O)cc(-c2nn(CC#N)cc2-c2cc(NC[C@H](C)O)nc(-c3cccnc3)n2)c1`, the IC50 in assay [1] was 1.7 nM; in assay [2], 0.6 nM; in assay [3], 11 nM. For `COc1cc(C)cc(-c2nn(CC#N)cc2-c2cc(NCCCO)nc(-c3cccnc3)n2)c1`, the IC50 entry in assay [4] was “Not Active”; in assay [1], 119 nM. For `Cc1cc(O)cc(-c2nn(CC#N)cc2-c2cc(NCCCN3CCOCC3)nc(-c3cccnc3)n2)c1`, the IC50 entry is “Not Active” in assay [4] and 183 nM in assay [1]. Molecule `Cc1ncc(-c2ccnc(-c3cccnc3)c2)c(-c2ccc(Cl)cc2Cl)n1` yielded an IC50 in assay [1] of 330 nM.

As for `Cc1cc(O)cc(-c2nn(CC#N)cc2-c2cc(NCCCO)nc(-c3cccnc3)n2)c1`, the IC50 entry is “Not Active” in assay [4] and 108 nM in assay [1]. For `Cc1cc(O)cc(-c2nn(CC#N)cc2-c2cc(NCCCCO)nc(-c3cccnc3)n2)c1`, in that order: “Not Active” and 24 nM.

Take `COc1cc(C)cc(-c2nn(CC#N)cc2-c2cc(NCCN3CCOCC3)nc(-c3cccnc3)n2)c1`: the IC50 result was “Not Active” in assay [4] and 148 nM in assay [1].

For `COCCCNc1cc(-c2cnc(C)nc2-c2ccc(F)cc2Cl)nc(-c2ccccc2)n1`, the IC50 entry in assay [5] was “Not Active”.

Take `COCCCNc1cc(-c2cnc(C)nc2-c2ccc(Cl)cc2Cl)nc(-c2cccnc2)n1`: 357 nM corresponded to half-maximal inhibition in assay [1] (IC50). On the same count and under the same terms, in the case of `Cc1ncc(-c2ccnc(-c3cccnc3)c2)c(-c2ccc(F)cc2Cl)n1` it was 570 nM. Regarding `COc1cc(C)cc(-c2nn(CC#N)cc2-c2cc(NCCCCO)nc(-c3cccnc3)n2)c1`, the half-inhibitory concentration (IC50) result in assay [4] was “Not Active”; in assay [1] it was 56 nM. As to `COCCCNc1cc(-c2cnc(C)nc2-c2ccc(Cl)cc2Cl)nc(-c2ccccc2)n1`, the IC50 entry in assay [5] is recorded as “Not Active”.

`COc1cc(N2CCC(N(C)C)CC2)ccc1Nc1ncc(Cl)c(Nc2ccccc2P(C)(C)=O)n1` yielded an IC50 in assay [6] of 1.9 nM. Regarding `COc1cc(C)cc(-c2nn(CC#N)cc2-c2cc(NCCCN3CCOCC3)nc(-c3cccnc3)n2)c1`, the 50% inhibitory concentration (IC50) entry in assay [4] was “Not Active”; in assay [1] it was 88 nM. For the molecule `Cc1cc(O)cc(-c2nn(CC#N)cc2-c2cc(NCCN3CCOCC3)nc(-c3cccnc3)n2)c1`, the IC50 result is “Not Active” in assay [4] and 478 nM in assay [1]. The molecule `COCCCNc1cc(-c2cnc(C)nc2-c2ccc(F)cc2Cl)nc(-c2cccnc2)n1` had an IC50 in assay [1] of 1330 nM. In assay [7], `COc1ccc(-c2cc(-c3c[nH]nc3-c3cc(C)cc(OC)c3)ccn2)cc1` yielded a 50% inhibitory concentration (IC50) of 1250 nM. For the molecule `Cc1cc(O)cc(-c2nn(CC#N)cc2-c2cc(NCC(C)C)nc(-c3cccnc3)n2)c1`, the 50% inhibitory concentration (IC50) entry in assay [4] is “Not Active”; in assay [1] it was 780 nM. On to `COc1cc(C)cc(-c2c(-c3ccnc(-c4ccc(NC(C)=O)cc4)c3)cnn2CC#N)c1`, for which it took 6250 nM to reach half-maximal inhibition in assay [7] (IC50).

On to `COc1cc(C)cc(-c2nn(CC#N)cc2-c2cc(NCC(C)C)nc(-c3cccnc3)n2)c1`, for which the IC50 result in assay [4] was “Not Active”; in assay [1], 920 nM.

One may read the IC50 as the concentration that gives 50% inhibition.
